Test results as given in ChEMBL document CHEMBL1201862, “PubChem BioAssay data set” (2004).
Active and inactive are the calls of the source.

Experiments:
[1] = Vero cell cytotoxicity, dose response, cytotoxicity control for Vif-APOBEC3G degradation inhibitor project, Vero cells (AID 1117358); format: functional; conditions: Human immunodeficiency virus 1, Vero
Cytochrome P450 3A4 = Cytochrome P450 3A4 (Homo sapiens, UniProt P08684);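 further: CYP3A4 tested as one member of a cytochrome P450 panel screen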
Cytochrome P450 3A4, sequence (P08684 whole entry): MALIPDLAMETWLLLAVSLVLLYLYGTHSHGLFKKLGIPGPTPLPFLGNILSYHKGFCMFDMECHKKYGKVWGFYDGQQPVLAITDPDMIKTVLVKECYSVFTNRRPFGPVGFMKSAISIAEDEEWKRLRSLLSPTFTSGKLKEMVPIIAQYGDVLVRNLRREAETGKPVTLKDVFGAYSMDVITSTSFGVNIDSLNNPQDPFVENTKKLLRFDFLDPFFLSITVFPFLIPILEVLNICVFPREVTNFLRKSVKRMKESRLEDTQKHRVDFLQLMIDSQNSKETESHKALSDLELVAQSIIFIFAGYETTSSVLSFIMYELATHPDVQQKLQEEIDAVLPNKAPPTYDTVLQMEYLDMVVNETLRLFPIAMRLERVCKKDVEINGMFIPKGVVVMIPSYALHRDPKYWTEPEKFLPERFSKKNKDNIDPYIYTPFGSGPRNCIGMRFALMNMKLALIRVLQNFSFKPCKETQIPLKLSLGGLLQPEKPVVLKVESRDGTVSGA

cells [2] = experiment: cells
Cytochrome P450 2D6 = Cytochrome P450 2D6 (Homo sapiens, UniProt P10635);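 further: CYP2D6 member of a cytochrome P450 panel assay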
Cytochrome P450 2D6, sequence (P10635 whole entry, the tested form may be a part): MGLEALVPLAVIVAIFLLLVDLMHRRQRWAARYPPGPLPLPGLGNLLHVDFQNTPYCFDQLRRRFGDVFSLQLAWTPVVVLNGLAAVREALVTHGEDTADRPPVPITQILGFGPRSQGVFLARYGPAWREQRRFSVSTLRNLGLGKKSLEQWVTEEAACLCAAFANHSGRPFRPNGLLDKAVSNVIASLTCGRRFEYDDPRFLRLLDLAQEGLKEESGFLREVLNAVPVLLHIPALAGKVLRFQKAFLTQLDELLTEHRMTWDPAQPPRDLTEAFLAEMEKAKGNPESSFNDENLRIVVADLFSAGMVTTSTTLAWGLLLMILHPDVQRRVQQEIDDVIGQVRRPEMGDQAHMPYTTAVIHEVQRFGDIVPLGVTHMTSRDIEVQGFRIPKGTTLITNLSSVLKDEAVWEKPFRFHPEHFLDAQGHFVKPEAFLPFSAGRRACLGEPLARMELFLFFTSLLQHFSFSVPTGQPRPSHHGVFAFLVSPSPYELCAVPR

[3] = molecular target: T1, Oxysterols receptor LXR-beta (Homo sapiens, UniProt P55055); format: functional, cell-based;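 further: Cell-based luminescence dose-response assay of agonist activity at LXR, run as a confirmatory counterscreen to a daf-12 agonist screen; agonist potency from rising luciferase signal of a Gal4-LXR reporter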
T1 sequence (P55055 whole entry): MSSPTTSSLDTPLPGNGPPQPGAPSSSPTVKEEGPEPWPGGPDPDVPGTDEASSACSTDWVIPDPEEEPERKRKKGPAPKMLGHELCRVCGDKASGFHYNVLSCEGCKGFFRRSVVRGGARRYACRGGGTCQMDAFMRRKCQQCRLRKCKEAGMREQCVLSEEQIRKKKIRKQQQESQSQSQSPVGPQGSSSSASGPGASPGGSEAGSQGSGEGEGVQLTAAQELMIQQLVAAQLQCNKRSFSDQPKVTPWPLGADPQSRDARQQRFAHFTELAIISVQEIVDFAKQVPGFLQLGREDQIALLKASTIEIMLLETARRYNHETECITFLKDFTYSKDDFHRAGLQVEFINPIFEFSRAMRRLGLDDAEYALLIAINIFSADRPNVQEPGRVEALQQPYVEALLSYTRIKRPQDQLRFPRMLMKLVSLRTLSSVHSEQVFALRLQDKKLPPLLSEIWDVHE

[4] = molecular target: T1, Oxysterols receptor LXR-beta; experiment: LXR agonists, Gal4 luciferase reporter, dose response, counter-screen for ssDAF-12 agonist project, cell-based, luminescence, HEK293, S. stercoralis campaign (AID 720737); format: functional; conditions: read-out: IC50 (the source's name)
[5] = Luminescence-based cell-based high throughput dose response assay to identify activators of the DAF-12 from the parasite S. stercoralis (ssDAF-12).; format: functional
[6] = molecular target: Heat shock protein HSP 90-alpha (Homo sapiens, UniProt P07900); format: functional, organism-based
cells [7] = conditions: A549
[8] = HepG2 cell cytotoxicity, dose response, cytotoxicity control, ATP luminescence, cherry-pick, set 6 (AID 1053125); format: functional, cell-based
cells [9] = conditions: HEK293
[10] = Luminescence Cell-Based Dose Retest to Confirm Inhibitors of Cancer Stem Cells. [Related pubchem assays (depositor defined):AID2717, AID2721]; format: functional; conditions: Homo sapiens
[11] = molecular target: Signal transducer and activator of transcription 1-alpha/beta (Homo sapiens, UniProt P42224); experiment: STAT1 signalling inhibitors, dose response, cell-based, NIH 3T3, luciferase reporter (AID 1396); format: functional
Signal transducer and activator of transcription 1-alpha/beta, sequence (P42224 whole entry): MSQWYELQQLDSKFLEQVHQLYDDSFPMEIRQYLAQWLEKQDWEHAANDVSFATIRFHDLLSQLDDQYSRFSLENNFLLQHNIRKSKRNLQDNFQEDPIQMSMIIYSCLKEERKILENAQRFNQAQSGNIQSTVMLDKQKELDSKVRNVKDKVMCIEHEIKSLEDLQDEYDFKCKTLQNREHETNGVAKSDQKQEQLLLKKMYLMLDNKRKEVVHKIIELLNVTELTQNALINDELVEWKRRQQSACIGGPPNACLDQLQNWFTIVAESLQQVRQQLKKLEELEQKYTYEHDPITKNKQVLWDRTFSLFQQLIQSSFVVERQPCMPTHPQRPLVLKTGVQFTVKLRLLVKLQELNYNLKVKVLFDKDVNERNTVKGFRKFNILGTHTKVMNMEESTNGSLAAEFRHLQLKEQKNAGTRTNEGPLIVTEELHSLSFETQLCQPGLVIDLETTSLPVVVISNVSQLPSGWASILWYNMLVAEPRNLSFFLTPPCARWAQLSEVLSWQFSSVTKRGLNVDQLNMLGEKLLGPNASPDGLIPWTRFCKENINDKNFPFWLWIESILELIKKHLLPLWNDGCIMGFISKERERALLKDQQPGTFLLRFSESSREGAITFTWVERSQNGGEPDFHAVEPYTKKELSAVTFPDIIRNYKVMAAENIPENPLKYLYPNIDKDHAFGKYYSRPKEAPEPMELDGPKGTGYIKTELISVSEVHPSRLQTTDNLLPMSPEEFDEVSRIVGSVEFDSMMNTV

H4 = experiment: Luminescence Cell-Based Dose Response HTS to Identify Activators of 5'UTR Stem-Loop Driven Prion Protein mRNA Translation in H4 Neuroglioblastoma Cells. [Related pubchem assays: 1829 (Project Summary), 1814 (Primary HTS)]; format: functional; conditions: Homo sapiens
Transthyretin = Transthyretin (Homo sapiens, UniProt P02766); experiment: Luminescence-based cell-based high throughput dose response assay to identify activators of Transthyretin (TTR) transcription.; format: functional
[12] = molecular target: T2, RNA-binding protein pos-1 (Caenorhabditis elegans, UniProt G5EF15); experiment: inhibitors of POS-1/mex-3 RNA binding, dose response, biochemical, fluorescence polarization (AID 1964);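 further: purified POS-1 fused to maltose binding protein made in E. coli; potency of compounds blocking POS-1 binding to fluorescent RNA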
T2 sequence (G5EF15 whole entry): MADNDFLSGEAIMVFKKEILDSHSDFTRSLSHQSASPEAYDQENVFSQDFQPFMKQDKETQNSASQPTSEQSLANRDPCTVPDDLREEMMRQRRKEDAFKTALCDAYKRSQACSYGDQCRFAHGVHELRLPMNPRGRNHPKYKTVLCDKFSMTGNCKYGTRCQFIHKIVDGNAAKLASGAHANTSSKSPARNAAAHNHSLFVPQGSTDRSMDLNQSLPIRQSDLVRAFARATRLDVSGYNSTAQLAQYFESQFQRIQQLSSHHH

[13] = Luminescence Cell-Based Dose Response HTS to Identify Activators of Luciferase Translation or Activity in H4 […] Cells. [Related pubchem assays: 1829 (Project Summary), 1814 (Primary HTS)]; format: functional
[14] = molecular target: T3, Zinc finger protein mex-5 (Caenorhabditis elegans, UniProt Q9XUB2); experiment: MEX-5/TCR-2 RNA interaction inhibitors, dose response, biochemical, C. elegans, fluorescence polarization (AID 1960)
T3 sequence (Q9XUB2 whole entry): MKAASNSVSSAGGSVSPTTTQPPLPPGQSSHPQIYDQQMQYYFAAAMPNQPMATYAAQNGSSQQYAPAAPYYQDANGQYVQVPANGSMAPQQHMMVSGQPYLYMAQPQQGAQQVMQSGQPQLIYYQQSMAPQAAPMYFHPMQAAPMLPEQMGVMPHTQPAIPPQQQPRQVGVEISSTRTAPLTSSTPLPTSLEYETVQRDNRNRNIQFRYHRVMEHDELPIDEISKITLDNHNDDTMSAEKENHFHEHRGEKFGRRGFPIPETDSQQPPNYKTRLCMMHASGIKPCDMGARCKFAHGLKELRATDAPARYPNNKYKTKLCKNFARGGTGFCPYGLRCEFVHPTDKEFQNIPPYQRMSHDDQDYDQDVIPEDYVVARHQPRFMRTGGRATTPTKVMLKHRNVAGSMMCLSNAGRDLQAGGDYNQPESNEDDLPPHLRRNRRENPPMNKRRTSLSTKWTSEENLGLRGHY

[15] = Luminescence Cell-Based Dose Confirmation HTS to Identify Activators of 5'UTR Stem-Loop Driven Alpha-Synuclein mRNA Translation in H4 Neuroglioblastoma Cells. [Related pubchem assays: 1829 (Project Summary), 1814 (Primary HTS)]; format: functional
[16] = molecular target: T4, Carboxy-terminal domain RNA polymerase II polypeptide A small phosphatase 1 (Homo sapiens, UniProt Q9GZU7); experiment: inhibitors of CTDSP1, concentration-response testing, biochemical assay, absorbance-based, actives from ultra-high-throughput screening (AID 540297); format: functional
T4 sequence (Q9GZU7 whole entry): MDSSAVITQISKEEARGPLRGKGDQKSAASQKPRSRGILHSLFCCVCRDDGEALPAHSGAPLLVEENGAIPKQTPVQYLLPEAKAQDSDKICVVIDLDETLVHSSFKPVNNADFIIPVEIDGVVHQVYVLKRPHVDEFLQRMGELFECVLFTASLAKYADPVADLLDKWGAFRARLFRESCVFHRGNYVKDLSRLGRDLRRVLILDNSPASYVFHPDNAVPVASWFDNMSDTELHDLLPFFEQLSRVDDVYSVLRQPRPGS

[17] = molecular target: RNA-editing ligase 1, mitochondrial (Trypanosoma brucei brucei, UniProt P86926); experiment: TbREL1 ligase inhibitors, dose response, biochemical, fluorescence, Trypanosoma brucei (AID 1117295); format: functional
RNA-editing ligase 1, mitochondrial, sequence (P86926 whole entry): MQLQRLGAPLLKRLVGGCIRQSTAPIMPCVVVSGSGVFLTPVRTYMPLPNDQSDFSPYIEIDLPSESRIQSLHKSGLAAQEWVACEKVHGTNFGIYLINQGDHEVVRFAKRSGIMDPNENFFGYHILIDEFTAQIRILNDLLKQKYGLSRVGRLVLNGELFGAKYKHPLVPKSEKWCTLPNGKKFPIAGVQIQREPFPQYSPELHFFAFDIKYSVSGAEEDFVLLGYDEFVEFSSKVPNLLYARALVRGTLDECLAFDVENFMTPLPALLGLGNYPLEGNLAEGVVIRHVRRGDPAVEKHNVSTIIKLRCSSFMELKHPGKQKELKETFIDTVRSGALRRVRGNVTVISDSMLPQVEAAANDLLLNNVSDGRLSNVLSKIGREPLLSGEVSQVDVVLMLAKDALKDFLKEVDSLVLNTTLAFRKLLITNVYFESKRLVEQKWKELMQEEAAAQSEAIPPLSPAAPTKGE

Caspase-6 = molecular target: T5, Caspase-6 (Homo sapiens, UniProt P55212); experiment: human caspase-6 inhibitors, dose response, biochemical, VEID-R110 fluorescence, cherry-pick (AID 720632)
T5 sequence (P55212 whole entry): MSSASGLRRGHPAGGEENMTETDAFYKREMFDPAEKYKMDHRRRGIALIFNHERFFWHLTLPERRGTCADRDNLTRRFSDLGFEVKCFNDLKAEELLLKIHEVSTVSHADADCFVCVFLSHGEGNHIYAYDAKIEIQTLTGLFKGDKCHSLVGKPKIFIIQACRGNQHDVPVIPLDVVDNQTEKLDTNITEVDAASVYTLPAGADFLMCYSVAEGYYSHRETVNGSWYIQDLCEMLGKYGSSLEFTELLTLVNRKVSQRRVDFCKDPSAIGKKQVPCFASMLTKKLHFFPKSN

SMILES: Cc1onc(-c2ccccc2Cl)c1C(=O)N1CCN(c2cccc(Cl)c2)CC1
- CC50 [1]: > 40 µM (active)

SMILES: Cc1ccccc1-c1cc(-c2ccccc2O)on1
- AC50 (Cytochrome P450 3A4): 31.6 µM (inconclusive)
- EC50 (cells [2]): > 67.6 µM (inactive)
- AC50 (Cytochrome P450 2D6): 22.4 µM (inconclusive)
- EC50 [3]: > 67.6 µM (inactive)
- EC50 [4]: > 67.6 µM (inactive)
- IC50 [5]: > 67.6 µM (inactive)

SMILES: CCCCCCc1cc2cc(S(=O)(=O)c3ccc(Cl)cc3)c(=O)oc2cc1O
- AC50 [6]: 476 nM (active)
- AC50 (cells [7]): 35.6 µM (active)
- AC50 [8]: 41.4 µM (active)
- AC50 (cells [9]): > 52 µM (inactive)
- AC50 [10]: 797 nM (active)

SMILES: O=C(c1ccco1)N1CCN(c2[nH]cnc3c4ccccc4nc2-3)CC1
- IC50 [11]: 16.9 µM (not active)

SMILES: O=C/C(=C\Nc1ccccn1)c1nc2ccccc2o1
- EC50 (H4): 32.7 µM (active)
- EC50 (Transthyretin): > 167 µM (inactive)
- EC50 [12]: > 300 µM (not active)
- EC50 [13]: 10.2 µM (active)
- EC50 [14]: > 300 µM (not active)
- EC50 [15]: > 120 µM (not active)

SMILES: O=C(N/N=C/c1ccc(OC(=O)c2ccccc2Cl)cc1)c1cc(O)cc(O)c1
- IC50 [16]: 1.4 µM (active)
- IC50 [17]: 41 µM (inactive)
- AC50 (Caspase-6): 1.11 µM (active)
